What was measured:
[1] = target: T1, human vitamin D-binding protein (hDBP) (Homo sapiens, UniProt P02774); assay: Relative Competitive Index assay, vitamin D-binding protein; conditions: RCI of 1α,25(OH)2 D3 set to 100; 4° C., pH 7.4
T1 sequence (P02774 17-474): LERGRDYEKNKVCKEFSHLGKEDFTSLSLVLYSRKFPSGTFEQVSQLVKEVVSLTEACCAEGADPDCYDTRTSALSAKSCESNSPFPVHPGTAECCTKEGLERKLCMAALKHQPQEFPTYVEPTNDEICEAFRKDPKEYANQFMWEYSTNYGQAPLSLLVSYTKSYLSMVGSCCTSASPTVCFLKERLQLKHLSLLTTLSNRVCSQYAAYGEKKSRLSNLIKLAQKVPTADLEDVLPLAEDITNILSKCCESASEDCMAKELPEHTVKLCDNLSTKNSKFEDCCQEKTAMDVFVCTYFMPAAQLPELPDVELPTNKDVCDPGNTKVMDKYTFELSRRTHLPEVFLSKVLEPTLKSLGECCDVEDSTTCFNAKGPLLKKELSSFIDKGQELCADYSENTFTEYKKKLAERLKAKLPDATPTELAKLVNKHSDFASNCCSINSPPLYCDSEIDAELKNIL
Source text: The compared analogs are 14α,15α-methano-1α,25(OH)2 D3 (LO), 22(m(dimethylhydroxymethyl)phenyl)-23,24,25,26,27-pentanor-1α- OH-D3 (EV) and (22R)-1,25(OH)2 -22,23,diene-D3 (HR), all conformationally flexible genomic agonists. By definition the RCI for 1α,25(OH)2 D3 is set to 100%. The data seen in FIG. 7 represent the mean of three determinations.
Vitamin D-Binding Protein Assay Relative Competitive Index
This example describes a Relative Competitive Index Assay used for determination of analogs binding affinity to vitamin D-binding protein.
Phase separation was then obtained by the addition of 0.5 ml of cold dextran-coated charcoal.
The data was plotted as [competitor]/[[^3 H]25(OH)D3 ] vs. 1/[fraction bound]. The RCI was calculated as [slope of competitor]/[slopefor 25(OH)D3 ]×100. Results are seen in FIG. 7. Although each analog was assayed in competition with [^3 H]25(OH)D3, the data are expressed as relative to the binding of 1α,25(OH)2 D3, with its RCI set to 100.

[2] = test system: VDRnuc; assay: Genomic response (summary classification); conditions: Yes/No, Tables 1 and 6
Source text: (§1) Table 6 identifies biological properties, such as genomic response, rapid response, agonist or antagonist function, binding of the analog to the vitamin binding protein (expressed as RCI), binding to the nuclear 1α,25(OH)2 D3 receptor (expressed as RCI) rapid response (expressed as % transcaltachia the rapid hormonal stimulation of intestinal calcium absorption) the classic vitamin D responses such as intestinal Ca^2+ absorption (ICA) and bone Ca^2+ mobilizing activity (BCM) determined in vivo in a vitamin D-deficient chick, and cell differentiation (expressed as % ED50), an assessment of the ability to promote the nuclear response of cell differentiation.

[3] = test system: vitamin D-deficient chick; assay: Bone Ca2+ mobilizing activity (BCM) in vitamin D-deficient chick; type: in vivo; conditions: i.m.; for Classic Vit D Responses BCM: relative to 100 pmol 1α,25(OH)2 D3 = 100%, 12 h before assay
Experimental: The bone calcium mobilizing (BCM) assay is also conducted in the vitamin D-deficient chick. The BCM assay determines the relative ability of the tested analog to mobilize bone calcium. The natural hormone 1α,25(OH)2 D3 is very potent in the BCM assay. For example, when 1α,25(OH)2 D3 in inappropriate amounts are used as a drug in human patients, the patient may become hypercalcemic and eventually hypercalciuria with nephrolithiasis and renal failure may develop. The BCM assay was used to determine the relative activity of the analogs of the invention to stimulate bone Ca^2+ mobilization.
(§2) Results of the testing of the analogs of the invention in vivo by the ICA and IBM assays are shown in FIG. 9 which illustrates the capability of analogs LO, EV and HR to stimulate intestinal Ca^2+ absorption (ICA) and bone Ca^2+ mobilizing activity (BCM). In this study, the analogs of 1α,25(OH) were given i.m. to vitamin D-deficient chicks 12 hours before the assay began. The activity produced by 100 pmol of 1α,25(OH)2 D3 was set to be 100% for both ICA and BCM. The dose of the analogs required to achieve a biological response for either ICA or BCM equivalent to the 100 pmol dose of 1α,25(OH)2 D3 was calculated and converted to a percentage. Results are expressed as mean +SE of groups of seven chicks. Each assay included a negative control (-D), that is no vitamin D was present, and a positive control, where vitamin D3 (+D3) was present in 3.25 nmol. […] 1α,25(OH)2 D3 and analogs LO [14α,15α-methano-1α,25(OH)2 D3 ], EV [22-(m(dimethylhydroxymethyl)phenyl)-23,24,25,26,27-pentanor-1α-OH-D3 ] and HR [(22R)-1,25(OH)2 -22,23-diene-D3 ] were administered in 0.0065, 0.065, 0.65 and 6.5 nmol as shown.
(§3) In Vivo Assays of Intestinal Calcium Absorption and Bone Calcium Mobilization
(§4) This example describes assays used for determination of analogs biological activity in intestinal calcium absorption (ICA) and bone calcium mobilization (BCM) assays.
(§5) ICA and BCM were measured in vivo in the vitamin D-deficient chick model system according to Biochem. Pharmacol., 18: 2347 (1969).
(§6) Twelve hours before assay, the chickens, which had been placed on a zero-calcium diet 48 h before assay, were injected intramuscularly with the vitamin metabolite 1α,25(OH)2 D3 or analog (1-10,000 pmoles) dissolved in 0.1 mL of ethanol/1,2-propanediol (1:1, v/v). At the time of assay, 4.0 mg of ^40 Ca^2+ +5 μCi of ^45 Ca^2+ (New England Nuclear) were placed in the duodenum of the birds lightly anesthetized with ether. After 30 min, the birds were decapitated and the blood was collected.
BCM activity was estimated from the increase of total serum calcium concentration, as determined by atomic absorption spectrophotometry.

[4] = test system: rapid responses (VDRmem); assay: Antagonist function (summary classification); conditions: Yes/No, Tables 1 and 6
Source text: as §1

[5] = test system: VDRmem; assay: Rapid response (summary classification); conditions: Yes/No, Tables 1 and 6
Source text: as §1

[6] = test system: vitamin D-deficient chick; assay: Intestinal Ca2+ absorption (ICA) in vitamin D-deficient chick; type: in vivo; conditions: i.m.; for Classic Vit D Responses ICA: relative to 100 pmol 1α,25(OH)2 D3 = 100%, 12 h before assay
Experimental: A primary fundamental physiological property of vitamin D and particularly 1α,25(OH)2 D3 is its ability to stimulate the intestinal absorption of calcium and facilitate the availability of dietary calcium to the organism. Intestinal absorption of the calcium is measured by the intestinal calcium absorption (ICA) assay, developed in the model of vitamin-D deficient chicks. The ICA assay was used to determine the relative capability of the tested analog to stimulate intestinal Ca^2+ absorption.
as §2, §3, §4, §5, §6
The radioactivity content, which is a measure of ICA, of 0.2 mL of serum was measured in a liquid scintillation counter (Beckman LS8000) to determine the amount of ^45 Ca^2+ absorbed.

| Vit D Binding Protein (RCI) [1] | Structure (SMILES) | Genomic Response [2] | Classic Vit D Responses BCM [3] | Antagonist [4] | Rapid Response [5] | Classic Vit D Responses ICA [6] | BCM (in words) ([3]; vitamin D-deficient chick) | ICA (in words) ([6]; vitamin D-deficient chick) |
| --- | --- | --- | --- | --- | --- | --- | --- | --- |
| 66,700 | C=C1CC[C@H](O)C/C1=C/C=C1\CCC[C@]2(C)[C@@H]([C@H](C)CCCC(C)(C)O)CC[C@@H]12 [25(OH)D3, 25-hydroxyvitamin D3, reference compound] | – | – | – | – | – | – | – |
| – | C=C1/C(=C\C=C2/CCC[C@@]3(C)[C@@H]2CC[C@@H]3[C@H](C)CCCC(C)(C)O)C[C@@H](O)C[C@@H]1O [GE] | Yes | < 0.1% | No | Yes | 0.5% | – | – |
| – | C=C1/C(=C\C=C2/CCC[C@]3(C)[C@@H]([C@H](C)CCCC(C)(C)O)CC[C@@H]23)C[C@H](O)C[C@H]1O [HH] | No | – | Yes | No | – | – | – |
| – | C=C1/C(=C\C=C2/CCC[C@]3(C)[C@@H]([C@H](C)CCCC(C)(C)O)CC[C@@H]23)C[C@H](O)C[C@@H]1O [HJ] | Yes | 1.5% | No | Yes | 2.8% | – | – |
| – | C=C1/C(=C\C=C2\CCC[C@]3(C)[C@@H]([C@H](C)CCCC(C)(C)O)CC[C@@H]23)C[C@@H](O)C[C@@H]1O [JR] | Yes | 0.02% | No | Yes | 0.03% | – | – |
| – | C=C1/C(=C/C=C2/CCC[C@]3(C)[C@@H]([C@H](C)CCCC(C)(C)O)CC[C@@H]23)C[C@@H](O)C[C@@H]1O [JS] | Yes | < 0.02% | No | Yes | < 0.02% | – | – |
| – | C=C1CC[C@H](O)C/C1=C/C=C1\CCC[C@]2(C)[C@@H]([C@H](C)CCCC(C)C)CC[C@@H]12 [vitamin D3, 9,10-secocholesta-5,7,10(19)-trien-3β-ol, reference compound] | – | – | – | – | – | significant at P<0.01 | significant at P<0.01 |

— patent US6103709A (priority 1998, dated 2000)
